# Laboratory results as given in patent US8791130B2, “Aminopyrimidine derivatives as LRRK2 modulators” (Genentech, Inc., priority 2011, dated 2014).
# pKi: −log10 of the molar value.
# Target: LRRK2 (Homo sapiens (Human), UniProt Q5S007, G2019S)
# Experiment: In Vitro LRRK2 LabChip Assay (LRRK2 Ki)
# Assay type: biochemical
# Method: In Vitro LRRK2 LabChip Assay This assay was used to determine a compound's potency in inhibiting activity of LRRK2 by determining, Kiapp, IC50, or percent inhibition values. In a polypropylene plate, LRRK2, fluorescently-labeled peptide substrate, ATP and test compound were incubated together. Using a LabChip 3000 (Caliper Life Sciences), after the reaction the substrate was separated by capillary electrophoresis into two populations: phosphorylated and unphosphorylated. The relative amounts of each were quantitated by fluorescence intensity. LRRK2 Ki was determined according to the equation: […]))). Ki values in Table 4 and elsewhere herein are shown in μM. […] Substrate: 5[…] Non-binding plate: 384 well clear V-bottom polypropylene plates (Greiner cat #781280). ATP: 10 mM ATP (Cell Signaling cat #9804). Triton X-100: Triton X-100. Brij-35: Brij-35 (Pierce cat #20150). […] DMSO: DMSO (Sigma cat #34869-100 ML). […] Compound Plate Preparation: For serial dilutions, 34.6 μl DMSO was added to columns 3-24. For the assay controls, 37.5 μl DMSO was added to columns 1 and 2 of rows A and […]-028831 (Staurosporine) was added to columns 1 and 2, row B. […] A Precision instrument was used to perform 1:3.16 serial dilutions (“PLK_BM_serial_halflog”). ATP Preparation: ATP was diluted to 282.1 μM in Complete Kinase Buffer (final concentration was 130 μM). […] Assay Procedure: To a 50 μl polypropylene plate, 5 μl/well buffer/substrate was added by hand to Blank wells. A Biomek FX was used to start the kinase reaction (“PLK SAR 23 ATP”). […] 5 μl/well kinase/substrate in Assay Plate; The plate was incubated for 2 hours in the dark. Biomek FX was used to stop the kinase reaction (“PLK Stop”), and 10 μl/well Stop solution was added to the Assay Plate.
# Sequence of LRRK2 (Q5S007 970-2527 G2019S): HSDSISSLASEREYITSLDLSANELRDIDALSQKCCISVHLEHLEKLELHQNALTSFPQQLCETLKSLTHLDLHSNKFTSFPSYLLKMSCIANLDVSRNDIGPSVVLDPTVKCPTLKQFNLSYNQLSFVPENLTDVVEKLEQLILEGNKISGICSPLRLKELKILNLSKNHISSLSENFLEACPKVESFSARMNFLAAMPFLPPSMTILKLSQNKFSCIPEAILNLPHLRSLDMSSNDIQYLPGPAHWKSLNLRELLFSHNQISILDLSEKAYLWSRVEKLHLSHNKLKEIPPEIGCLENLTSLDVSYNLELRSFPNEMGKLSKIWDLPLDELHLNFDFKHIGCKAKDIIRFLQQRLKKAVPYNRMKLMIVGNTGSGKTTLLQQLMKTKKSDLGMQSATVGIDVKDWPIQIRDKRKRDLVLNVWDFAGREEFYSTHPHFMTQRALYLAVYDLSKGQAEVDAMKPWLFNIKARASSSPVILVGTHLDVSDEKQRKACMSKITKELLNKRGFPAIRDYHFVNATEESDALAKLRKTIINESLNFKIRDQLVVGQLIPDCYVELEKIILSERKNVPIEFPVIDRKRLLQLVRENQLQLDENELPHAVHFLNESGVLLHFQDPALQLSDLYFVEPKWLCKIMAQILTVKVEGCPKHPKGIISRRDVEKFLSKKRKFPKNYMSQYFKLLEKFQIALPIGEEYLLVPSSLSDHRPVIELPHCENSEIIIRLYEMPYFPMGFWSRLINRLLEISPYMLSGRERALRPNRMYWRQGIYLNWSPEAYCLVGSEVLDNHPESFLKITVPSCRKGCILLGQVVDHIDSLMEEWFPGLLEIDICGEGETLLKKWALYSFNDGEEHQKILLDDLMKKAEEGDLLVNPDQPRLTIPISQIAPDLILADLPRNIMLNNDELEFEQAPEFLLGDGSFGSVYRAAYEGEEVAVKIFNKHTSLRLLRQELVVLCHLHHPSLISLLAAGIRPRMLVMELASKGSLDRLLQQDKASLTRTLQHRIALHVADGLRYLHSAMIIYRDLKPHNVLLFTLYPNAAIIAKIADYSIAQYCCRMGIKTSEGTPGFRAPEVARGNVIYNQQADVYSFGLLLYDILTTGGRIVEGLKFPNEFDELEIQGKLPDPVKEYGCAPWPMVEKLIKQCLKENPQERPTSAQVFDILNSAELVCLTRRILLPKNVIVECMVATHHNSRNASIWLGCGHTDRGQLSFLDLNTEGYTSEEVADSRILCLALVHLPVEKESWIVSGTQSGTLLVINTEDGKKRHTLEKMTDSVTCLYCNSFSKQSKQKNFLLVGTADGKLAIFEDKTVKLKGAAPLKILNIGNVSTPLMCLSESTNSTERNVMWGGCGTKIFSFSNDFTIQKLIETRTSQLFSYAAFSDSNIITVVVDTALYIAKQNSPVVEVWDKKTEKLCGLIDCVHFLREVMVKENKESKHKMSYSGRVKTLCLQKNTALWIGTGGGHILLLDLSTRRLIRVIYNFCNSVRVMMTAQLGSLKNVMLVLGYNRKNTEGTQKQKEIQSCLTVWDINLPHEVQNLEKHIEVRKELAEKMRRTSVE
row,pKi,SMILES
1,8.52,"CNc1nc(Nc2cc(OC)c(-c3c(C)nn(C)c3C)cc2Cl)ncc1C(F)(F)F [Compound 24, N^2-(2-chloro-5-methoxy-4-(1,3,5-trimethyl-1H-pyrazol-4-yl)phenyl)-N^4-methyl-5-(trifluoromethyl) pyrimidine-2,4-diamine]"
2,7.52,"CNc1nc(Nc2ccc(-c3nnc(C)o3)cc2Cl)ncc1Cl [Compound 33, 5-chloro-N^2-(2-chloro-4-(5-methyl-1,3,4-oxadiazol-2-yl)phenyl)-N^4-methylpyrimidine-2,4-diamine]"
3,8.15,"CNc1nc(Nc2ccc(-c3nnnn3C)cc2OC)ncc1Cl [Compound 10, 5-chloro-N^2-(2-methoxy-4-(1-methyl-1H-tetrazol-5-yl)phenyl)-N^4-methylpyrimidine-2,4-diamine]"
4,8.30,"CNc1nc(Nc2cc(OC)c(-c3ccnn3C)cc2Cl)ncc1C(F)(F)F [Compound 28, N^2-(2-chloro-5-methoxy-4-(1-methyl-1H-pyrazol-5-yl)phenyl)-N^4-methyl-5-(trifluoromethyl) pyrimidine-2,4-diamine]"
5,8.70,"CNc1nc(Nc2cc(F)c(-c3cnnn3C)cc2OC)ncc1C(F)(F)F [Compound 43, N2-(5-fluoro-2-methoxy-4-(1-methyl-1H-1,2,3-triazol-5-yl)phenyl)-N4-methyl-5-(trifluoromethyl) pyrimidine-2,4-diamine]"
6,8.30,"CNc1nc(Nc2cc(F)c(-n3nc(C)cc3COC)cc2OC)ncc1C(F)(F)F [Compound 47, N2-(5-fluoro-2-methoxy-4-(5-(methoxymethyl)-3-methyl-1H-pyrazol-1-yl)phenyl)-N4-methyl-5-(trifluoromethyl) pyrimidine-2,4-diamine]"
7,7.36,"CNc1nc(Nc2cc(OC)c(-c3nc(C)no3)cc2Cl)ncc1Cl [Compound 36, 5-chloro-N^2-(2-chloro-5-methoxy-4-(3-methyl-1,2,4-oxadiazol-5-yl)phenyl)-N^4-methylpyrimidine-2,4-diamine]"
8,8.52,"CNc1nc(Nc2cc(F)c(-n3nnnc3C)cc2OC)ncc1C(F)(F)F [Compound 42, N2-(5-fluoro-2-methoxy-4-(5-methyl-1H-tetrazol-1-yl)phenyl)-N4-methyl-5-(trifluoromethyl) pyrimidine-2,4-diamine]"
9,9.00,"CNc1nc(Nc2ccc(-c3ccnn3C)cc2OC)ncc1C(F)(F)F [Compound 25, N^2-(2-methoxy-4-(1-methyl-1H-pyrazol-5-yl)phenyl)-N^4-methyl-5-(trifluoromethyl) pyrimidine-2,4-diamine]"
10,8.52,"CNc1nc(Nc2ccc(-c3cnn(C)c3C)cc2OC)ncc1C(F)(F)F [Compound 39, N2-(4-(1,5-dimethyl-1H-pyrazol-4-yl)-2-methoxyphenyl)-N4-methyl-5-(trifluoromethyl) pyrimidine-2,4-diamine]"
11,8.52,"CNc1nc(Nc2ccc(-c3nnn[nH]3)cc2Cl)ncc1C(F)(F)F [Compound 1, N2-(2-chloro-4-(2H-tetrazol-5-yl)phenyl)-N4-methyl-5-(trifluoromethyl) pyrimidine-2,4-diamine]"
12,8.15,"CCNc1nc(Nc2cc(F)c(-c3nnc(C)o3)cc2OC)ncc1C(F)(F)F [Compound 29, N^4-ethyl-N^2-(5-fluoro-2-methoxy-4-(5-methyl-1,3,4-oxadiazol-2-yl)phenyl)-5-(trifluoromethyl) pyrimidine-2,4-diamine]"
13,8.00,"CNc1nc(Nc2cc(F)c(-c3cnn(C4COC4)c3)cc2OC)ncc1C(F)(F)F [Compound 44, N2-(5-fluoro-2-methoxy-4-(1-(oxetan-3-yl)-1H-pyrazol-4-yl)phenyl)-N4-methyl-5-(trifluoromethyl) pyrimidine-2,4-diamine]"
14,8.70,"CNc1nc(Nc2ccc(-c3cnn(C)c3)cc2OC)ncc1Cl [Compound 35, 5-chloro-N^2-(2-methoxy-4-(1-methyl-1H-pyrazol-4-yl)phenyl)-N^4-methylpyrimidine-2,4-diamine]"
15,8.15,"CNc1nc(Nc2ccc(-c3nccn3C)cc2OC)ncc1Cl [Compound 15, 5-chloro-N^2-(2-methoxy-4-(1-methyl-1H-imidazol-2-yl)phenyl)-N^4-methylpyrimidine-2,4-diamine]"
16,8.00,"CNc1nc(Nc2ccc(-c3nnn(C)n3)cc2OC)ncc1C(F)(F)F [Compound 18, N^2-(2-methoxy-4-(2-methyl-2H-tetrazol-5-yl)phenyl)-N^4-methyl-5-(trifluoromethyl) pyrimidine-2,4-diamine]"

row,pKi,SMILES
1,8.70,"CNc1nc(Nc2ccc(-n3cnnn3)cc2OC)ncc1C(F)(F)F [Compound 27, N^2-(2-methoxy-4-(1H-tetrazol-1-yl)phenyl)-N^4-methyl-5-(trifluoromethyl) pyrimidine-2,4-diamine]"
2,9.00,"CNc1nc(Nc2ccc(-c3c(C)noc3C)cc2OC)ncc1C(F)(F)F [Compound 26, N^2-(4-(3,5-dimethylisoxazol-4-yl)-2-methoxyphenyl)-N^4-methyl-5-(trifluoromethyl) pyrimidine-2,4-diamine]"
3,8.70,"CNc1nc(Nc2ccc(-c3cncn3C)cc2OC)ncc1Cl [Compound 16, 5-chloro-N2-(2-methoxy-4-(1-methyl-1H-imidazol-5-yl)phenyl)-N4-methylpyrimidine-2,4-diamine]"
4,7.74,"CNc1nc(Nc2ccc(-c3nnn(C)n3)cc2Cl)ncc1C(F)(F)F [Compound 3, N2-(2-chloro-4-(2-methyl-2H-tetrazol-5-yl)phenyl)-N4-methyl-5-(trifluoromethyl) pyrimidine-2,4-diamine]"
5,8.10,"CNc1nc(Nc2cc(OC)c(-c3nnc(C)o3)cc2Cl)ncc1C(F)(F)F [Compound 7, N2-(2-chloro-5-methoxy-4-(5-methyl-1,3,4-oxadiazol-2-yl)phenyl)-N4-methyl-5-(trifluoromethyl) pyrimidine-2,4-diamine]"
6,8.00,"CNc1nc(Nc2ccc(-n3nc(C)cc3COC)cc2OC)ncc1C(F)(F)F [Compound 48, N2-(2-methoxy-4-(5-(methoxymethyl)-3-methyl-1H-pyrazol-1-yl)phenyl)-N4-methyl-5-(trifluoromethyl) pyrimidine-2,4-diamine]"
7,8.40,"CNc1nc(Nc2cc(F)c(-n3nnnc3COC)cc2OC)ncc1C(F)(F)F [Compound 49, N2-(5-fluoro-2-methoxy-4-(5-(methoxymethyl)-1H-tetrazol-1-yl)phenyl)-N4-methyl-5-(trifluoromethyl) pyrimidine-2,4-diamine]"
8,8.52,"CNc1nc(Nc2ccc(-n3cncn3)cc2OC)ncc1C(F)(F)F [Compound 4, N2-(2-methoxy-4-(1H-1,2,4-triazol-1-yl)phenyl)-N4-methyl-5-(trifluoromethyl) pyrimidine-2,4-diamine]"
9,9.00,"CNc1nc(Nc2cc(F)c(-c3cnn(C)c3C(=O)N(C)C)cc2OC)ncc1C(F)(F)F [Compound 41, 4-(2-fluoro-5-methoxy-4-(4-(methylamino)-5-(trifluoromethyl)pyrimidin-2-ylamino)phenyl)-N,N,1-trimethyl-1H-pyrazole-5-carboxamide]"
10,8.52,"CNc1nc(Nc2cc(OC)c(-c3nccn3C)cc2Cl)ncc1C(F)(F)F [Compound 19, N^2-(2-chloro-5-methoxy-4-(1-methyl-1H-imidazol-2-yl)phenyl)-N^4-methyl-5-(trifluoromethyl) pyrimidine-2,4-diamine]"
11,8.40,"CNc1nc(Nc2ccc(-c3cnn(C)c3)cc2OC)ncc1C(F)(F)F [Compound 5, N2-(2-methoxy-4-(1-methyl-1H-pyrazol-4-yl)phenyl)-N4-methyl-5-(trifluoromethyl) pyrimidine-2,4-diamine]"
12,7.49,"CNc1nc(Nc2cc(F)c(-c3nc(C)no3)cc2OC)ncc1C(F)(F)F [Compound 6, N2-(5-fluoro-2-methoxy-4-(3-methyl-1,2,4-oxadiazol-5-yl)phenyl)-N4-methyl-5-(trifluoromethyl) pyrimidine-2,4-diamine]"
13,8.52,"CNc1nc(Nc2ccc(-c3cnnn3C)cc2OC)ncc1Cl [Compound 23, 5-chloro-N^2-(2-methoxy-4-(1-methyl-1H-1,2,3-triazol-5-yl)phenyl)-N^4-methylpyrimidine-2,4-diamine]"
14,8.40,"CNc1nc(Nc2cc(OC)c(-c3cnnn3C)cc2Cl)ncc1C(F)(F)F [Compound 11, N^2-(2-chloro-5-methoxy-4-(1-methyl-1H-1,2,3-triazol-5-yl)phenyl)-N^4-methyl-5-(trifluoromethyl) pyrimidine-2,4-diamine]"
15,7.96,"CNc1nc(Nc2cc(OC)c(-c3cnn(C)c3)cc2Cl)ncc1C(F)(F)F [Compound 32, N^2-(2-chloro-5-methoxy-4-(1-methyl-1H-pyrazol-4-yl)phenyl)-N^4-methyl-5-(trifluoromethyl) pyrimidine-2,4-diamine]"
16,7.92,"CNc1nc(Nc2cc(F)c(-c3nnc(C)o3)cc2OC)ncc1C(F)(F)F [Compound 30, N^2-(5-fluoro-2-methoxy-4-(5-methyl-1,3,4-oxadiazol-2-yl)phenyl)-N^4-methyl-5-(trifluoromethyl) pyrimidine-2,4-diamine]"
